The values that follow come from paper PMC1716192, “A Plant-Derived Morphinan as a Novel Lead Compound Active against Malaria Liver Stages” (PLoS Medicine, 2006).

The test system of data set [1] is primary human hepatocytes. The data set is described as follows: In vitro assay for cell viability (neutral red), human hepatocytes. It is filed as cell-based. Conditions: 5 d drug exposure. The procedure: Primary hepatocytes of mice or humans were prepared as above and seeded in 96-well plates coated with collagen, at a density of 5 × 10^4 and 7 × 10^4 cells per well, respectively. Drugs were added to the culture medium, which was changed daily after 24 h or 48 h of incubation for mouse and human hepatocytes, respectively. After 48 h of drug exposure (mouse hepatocytes) or 5 d (human hepatocytes), 50 μl of neutral red (Sigma) at 0.02% in phosphate-buffered saline (PBS) were added per well and incubated for 24 additional hours. Cultures were then washed with PBS and the neutral red extracted with 1% SDS from viable cells and quantified by measuring the OD540 on a microplate autoreader photometer (BioTek Instruments, Winooski, Vermont, United States).
(§1) IC50 and TC50 were calculated by nonlinear regression using four-parameter logistic curves on the SigmaPlot 10.0 software (http://www.systat.com). Each IC50 or TC50 is expressed as a mean between two independent experiments, followed by the standard error of the mean.

Data set [2] concerns P. falciparum clone 3D7 (chloroquine sensitive) erythrocytic stages. Kind of data set: In vitro assay for P. falciparum blood stages inhibition, clone 3D7. It is filed as cell-based. The procedure: (§2) P. falciparum clone 3D7 (chloroquine sensitive) and clone FCR3 (chloroquine resistant) erythrocytic stages were cultured as described, and drug antiplasmodial activity was assessed by the standard method with minor modifications. Briefly, the compounds tazopsine and NCP-tazopsine solubilized in DMSO were further diluted in RPMI before adding to parasite cultures (0.5% parasitemia, mainly young trophozoites, and 1.8% final hematocrit), in a 2-fold dilution series. Plates were maintained for 24 h at 37 °C in 5% CO2. Then 0.5 μCi of [^3H]-hypoxanthine was added to each well, and cultures were incubated for a further 24 h. The growth inhibition was determined by comparison of the radioactivity incorporated into the treated cultures with that into the control cultures, by liquid scintillation counting.

For data set [3], the system named is P. falciparum clone FCR3 (chloroquine resistant) erythrocytic stages. The data set is described as follows: In vitro assay for P. falciparum blood stages inhibition, clone FCR3. Format: cell-based. The procedure:
as §2

The test system of data set [4] is P. yoelii (265 BY strain) hepatic stages. The data set is described as follows: In vitro assay for P. yoelii liver stage inhibition in primary mouse hepatocytes. It is filed as cell-based. Conditions: for IC50 / IC90: 48 h. As to the method: P. yoelii (265 BY strain) and P. falciparum (NF 54 strain) sporozoites were obtained by dissection of infected Anopheles stephensi salivary glands. Primary mouse hepatocytes were isolated as previously described and seeded in eight-well Lab-Tek plastic chamber slides (VWR, Fontenay-sous-Bois, France) previously coated with rat-tail collagen I (BD Biosciences, Le Pont de Claix, France) at a density of 10^5 cells per well. Mouse hepatocytes were cultured at 37 °C in 5% CO2 in William's E medium supplemented with 10% fetal calf serum, 1% L-glutamine, 1% sodium pyruvate, 1% insulin-transferrin-selenium, 1% nonessential amino acids, and 1% penicillin-streptomycin (all from Invitrogen, Cergy-Pontoise, France), for 24 h before inoculation of P. yoelii sporozoites (10^5 per well). Human liver fragments were collected following informed consent provided from patients undergoing a partial hepatectomy. The collection and use of these tissues were undertaken in accordance with French Government ethical regulations. Primary human hepatocytes were isolated from the healthy parts of these liver biopsies as previously described. Human hepatocytes were seeded in LabTek plastic chamber slides coated with collagen, at a density of 1.8 × 10^5 cells per well and cultured at 37 °C in 5% CO2 in the same medium as above, supplemented with 10^−7 M dexamethasone (Sigma) and 2% DMSO after complete cell adherence (12–24 h), for at least 48 h before inoculation of P. falciparum sporozoites (10^5 per well). For a standard assay, the plant extract, the purified compound, or primaquine was solubilized in DMSO, further diluted in culture medium (equal DMSO concentrations of <0.3% per well), and then added to hepatocyte cultures at the time of sporozoite inoculation. Three hours later, after sporozoite penetration into hepatocytes, cultures were washed and further incubated in the presence of the drug. Culture medium containing the appropriate drug concentration was changed daily until 48 h for P. yoelii, or until 5 d for P. falciparum. Parasites were quantified on the last day of incubation. For the in vitro timing experiments, tazopsine treatment of P. yoelii and P. falciparum cultures was undertaken for different periods during the cultivation: 0 h to 3 h, 3 h to 24 h, or 24 h to 48 h after P. yoelii sporozoite inoculation (quantification at 48 h), or 0 h to 2 d, or 3 d to 5 d after P. falciparum sporozoite inoculation (quantification at 5 d). […] Cells were stained with Evans Blue (0.4%), and parasites and cells nuclei were stained with 1 μg/ml of diamidino-phenylindole (DAPI; Sigma). Parasite numbers were counted under a fluorescence microscope with a 25× light microscope objective.
as §1

For data set [5], the system named is P. yoelii (265 BY strain) sporozoites. The data set is described as follows: In vivo assay: P. yoelii sporozoite challenge in mice. Details: species or system Swiss mice. The procedure: All animal were kept and used in accordance with institutional guidelines and European regulations. Female 6-wk-old Swiss mice (René Janvier, Le Genest-Saint-Isle, France) weighing 24–31 g were randomly allotted to five groups. The drug to be tested was administered orally. Tazopsine was diluted in sterile water and NCP-tazopsine in sterile water with 10% of Tween 80 (Aldrich, Le Chesnay, France). The drugs were administrated on days −1, 0, +1, +2 (+40 h), and the mice challenged on day 0 by retro-orbital injection of P. yoelii (265 BY strain) sporozoites. Group 1 received 100 mg/kg/day of tazopsine (n = 5), and group 2 received sterile water at the same times (controls, n = 5); groups 1 and 2 were challenged with 4,000 sporozoites. Group 3 received 100 mg/kg/d of NCP-tazopsine (n = 5), group 4 received 200 mg/kg/d of NCP-tazopsine (n = 8), and group 5 received 10% Tween in sterile water (controls, n = 5); groups 3, 4, and 5 were challenged with 10,000 sporozoites. Parasites were enumerated by blinded microscopic examination of Giemsa-stained tail-blood smears collected from day 2 to day 23 postinoculation. A mouse was considered negative when no parasites could be observed in 20,000 red blood cells (50 fields under a 50× light microscope objective) on any day during the period of observation. The results presented were derived from two independent duplicate experiments.

The mark [6] stands for this setting: 100 mg/kg daily for 4 d oral, challenge with 4,000 P. yoelii sporozoites.

“Also recorded” adds a separate entry of the source.

For the compound `COC1=C2[C@@H]3[C@H](O)c4ccc(OC)c(O)c4[C@]2(CCN3C2CCCC2)C[C@H](O)[C@@H]1O` [NCP-tazopsine, N-cyclopentyl-tazopsine], the TC50 in data set [1] is recorded as 2,549.6 ± 307.6 μM. Also, the “effect on multiplication of cultured erythrocytic P. falciparum” value in data set [2] (3D7 line, up to concentrations of 600 μM) is “did not have any detectable effect”. The toxicity to mice result in “Oral toxicity in mice” (up to doses of 400 mg/kg for 4 d) is recorded as “not found to be toxic”. Besides, the “effect on multiplication of cultured erythrocytic P. falciparum” value in data set [3] (FCR3 line, up to concentrations of 600 μM) is on record as “did not have any detectable effect”. In addition, in data set [4] (Plasmodium yoelii, Hepatocyte), half-maximal inhibition (IC50) required 3.3 ± 0.05 µM and the concentration for an effect of 90% (IC90) (as a rule, the point of the concentration-response curve where the effect stands at 90%) turned out to be 5.2 ± 1.4 µM. The “extension of prepatent period over controls (nonprotected mice)” value in data set [5] (100 mg/kg for 4 d oral, 10,000 sporozoites) was found to be 2 days. For the same compound, in data set [5] (100 mg/kg for 4 d oral, challenge with 10,000 P. yoelii sporozoites), the “mice protected from infection” value worked out at 60%. For the same compound, in data set [5] (200 mg/kg daily over 4 d oral, challenge with 10,000 P. yoelii sporozoites), the “mice developing a blood stage infection / protection after sporozoite challenge” value is “completely protected; also recorded: none of the mice developed a blood stage infection; also recorded: fully protected”.

Compound `COC1=C2[C@H]3NCC[C@]2(C[C@H](O)[C@@H]1O)c1c(ccc(OC)c1O)[C@H]3O` [Tazopsine, tazopsine] had a TC50 in data set [1] of 28.4 ± 4.3 µM. Also, half-maximal inhibition in data set [2] (Plasmodium falciparum, 3D7) (IC50) required 4.7 ± 0.9 µM. For the same compound, the “oral dose above which toxic to mice” value in the data set “Oral toxicity in mice” (given daily over 4 d) is listed as “exceeding 100 mg/kg”. Besides, in data set [3] (Plasmodium falciparum, FCR3), the IC50 (usually the concentration at which inhibition is half-maximal) amounted to 5.7 ± 2.1 µM. In addition, the “phase of hepatic development most susceptible to inhibition” value in data set [4] (P. yoelii, exposure 0-3 h, 3-24 h or 24-48 h) is on record as “most pronounced during the early developmental stages of the hepatic parasite (3 to 24 h)”. Further, in data set [4] (Plasmodium yoelii, Hepatocyte), the IC80 (commonly the concentration at which the effect reaches the 80% level) stood at 5 µM, the IC50 came to 3.1 ± 0.1 µM and it took 6.3 ± 0.8 µM to reach the 90% level (IC90). For the same compound, the “concentration giving total inhibition” value in data set [4] (cultured P. yoelii hepatic stages) was ≥ 7.1 µM. In addition, the “Sporozoite invasion and differentiation into early hepatic stages” value in data set [4] (exposure 0-3 h postinfection, suboptimal inhibitory concentrations) is recorded as “not affected”. Also, the “extension of prepatent period over controls (nonprotected mice)” value in data set [5] (100 mg/kg daily for 4 d oral, 4,000 sporozoites) is listed as “about 4 d”. Besides, in data set [5] (setting [6]), the “mice protected from infection” value was found to be 70% and the “mice that developed a blood stage parasitemia” value turned out to be 30%.
